Where a name gives a salt, the structure may show the parent alone.
What was measured:
[1] = biological target: T1, human serotonin transporter (Homo sapiens, UniProt P31645); assay: hSERT receptor binding ([125I]-RTI-55 radioligand); details: membranes of HEK-293 cells transfected with human serotonin transporter cDNA; 50 pM [125I]-RTI-55; IC50 converted by Cheng-Prusoff; read-out: SERT Ki
T1 construct: expressed in transfected cells; host or cells: HEK-293
Description: (§1) Cell pastes of HEK-293 cells transfected with a human serotonin transporter cDNA were prepared. The cell pastes were resuspended in 400 to 700 ml of Krebs-HEPES assay buffer (25 mM HEPES, 122 mM NaCl, 3 mM KCl, 1.2 mM MgSO4, 1.3 mM CaCl2, and 11 mM glucose, pH 7.4) with a Polytron homogenizer at Setting 7 for 30 seconds. Aliquots of membranes (˜2.5 mg/ml protein) were stored in liquid nitrogen until used.
Assays were set up in FlashPlates pre-coated with 0.1% PEI in a total volume of 250 μl containing: test compound (10^−5M to 10^−12M), cell membranes, and 50 pM [^125I]-RTI-55 (Perkin Elmer, NEX-272; specific activity 2200 Ci/mmol). The reaction was incubated and gently agitated for 90 minutes at room temperature, and terminated by removal of assay volume. Plates were covered, and bound [^125I]-RTI-55 was determined using a Wallac Trilux Beta Plate Counter. Test compounds were run in duplicate, and specific binding was defined as the difference between binding in the presence and absence of 10 μM citalopram.
Excel and GraphPad Prism software were used for data calculation and analysis. IC50 values were converted to Ki values using the Cheng-Prusoff equation.

[2] = biological target: T2, human norepinephrine transporter (Homo sapiens, UniProt P23975); assay: hNET receptor binding ([125I]-RTI-55 radioligand); details: membranes of HEK-293 cells transfected with human norepinephrine transporter cDNA; 50 pM [125I]-RTI-55; IC50 converted by Cheng-Prusoff; read-out: NET Ki
T2 construct: expressed in transfected cells; host or cells: HEK-293
Description: as §1, with “norepinephrine” for “serotonin”, “setting” for “Setting”, “(5” for “(˜2.5”
The binding assay was set up in Beckman deep-well polypropylene plates with a total volume of 250 μl containing: test compound (10^−5M to 10^−12M), cell membranes, and 50 pM [^125I]-RTI-55 (Perkin Elmer, NEX-272; specific activity 2200 Ci/mmol). The reaction was incubated by gentle agitation for 90 minutes at room temperature and was terminated by filtration through Whatman GF/C filter plates using a Brandel 96-well plate harvester. Scintillation fluid (100 μl) was added to each well, and bound [^125I]-RTI-55 was determined using a Wallac Trilux Beta Plate Counter. Test compounds were run in duplicate, and specific binding was defined as the difference between binding in the presence and absence of 10 μM desipramine.
Excel and GraphPad Prism software were used for data calculation and analysis. IC50 values were converted to K, values using the Cheng-Prusoff equation.

T1 sequence (P31645 whole entry): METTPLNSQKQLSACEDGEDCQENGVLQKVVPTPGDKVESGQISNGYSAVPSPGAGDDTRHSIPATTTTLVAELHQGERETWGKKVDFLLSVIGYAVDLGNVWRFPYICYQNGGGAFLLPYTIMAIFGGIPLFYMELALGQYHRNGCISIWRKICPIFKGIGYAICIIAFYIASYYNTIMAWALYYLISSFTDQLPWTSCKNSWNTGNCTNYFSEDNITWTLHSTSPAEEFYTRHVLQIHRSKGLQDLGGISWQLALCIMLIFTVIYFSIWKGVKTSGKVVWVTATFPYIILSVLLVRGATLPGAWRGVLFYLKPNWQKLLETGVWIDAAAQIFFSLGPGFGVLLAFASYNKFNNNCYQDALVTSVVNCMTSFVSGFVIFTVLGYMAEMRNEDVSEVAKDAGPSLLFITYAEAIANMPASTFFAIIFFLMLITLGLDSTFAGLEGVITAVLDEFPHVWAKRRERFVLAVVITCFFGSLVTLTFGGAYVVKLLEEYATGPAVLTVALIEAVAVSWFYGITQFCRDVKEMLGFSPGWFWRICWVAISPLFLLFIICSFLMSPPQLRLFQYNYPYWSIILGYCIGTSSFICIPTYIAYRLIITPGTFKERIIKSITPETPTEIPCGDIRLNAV
T2 sequence (P23975 whole entry): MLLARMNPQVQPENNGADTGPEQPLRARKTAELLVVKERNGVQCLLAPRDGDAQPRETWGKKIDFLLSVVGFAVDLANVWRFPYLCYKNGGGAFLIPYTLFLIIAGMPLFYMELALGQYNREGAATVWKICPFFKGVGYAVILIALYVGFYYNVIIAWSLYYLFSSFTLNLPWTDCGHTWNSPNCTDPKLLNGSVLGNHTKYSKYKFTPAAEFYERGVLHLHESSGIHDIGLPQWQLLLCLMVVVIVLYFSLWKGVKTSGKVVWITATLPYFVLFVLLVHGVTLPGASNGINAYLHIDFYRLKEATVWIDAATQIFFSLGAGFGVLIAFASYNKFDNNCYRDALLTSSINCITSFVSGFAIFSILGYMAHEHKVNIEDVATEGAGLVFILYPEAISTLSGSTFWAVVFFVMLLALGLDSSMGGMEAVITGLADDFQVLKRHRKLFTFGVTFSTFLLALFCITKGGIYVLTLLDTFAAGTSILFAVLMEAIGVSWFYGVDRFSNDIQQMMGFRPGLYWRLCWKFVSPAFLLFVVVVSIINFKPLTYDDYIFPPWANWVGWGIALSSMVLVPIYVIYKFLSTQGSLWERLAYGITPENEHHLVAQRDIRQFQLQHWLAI

COc1cccc(-c2ccc(F)cc2CO[C@H]2CCNC2)c1F [Example D-93, (S)-3-(4,2′-Difluoro-3′-methoxy-biphenyl-2-ylmethoxy)-pyrrolidine]
Ki [1]: 1450 nM | Ki [2]: 1120 nM

c1cc(-c2ccccc2CO[C@H]2CCNC2)cc(-n2cccn2)c1 [Example D-45, (S)-1-[2′-(Pyrroldin-3-yloxymethyl)-biphenyl-3-yl]-1H-pyrazole]
Ki [1]: 12.4 nM | Ki [2]: 3340 nM

Cc1cc(-c2ccccc2CO[C@H]2CCNC2)ccc1F [Example D-11, (S)-3-(4′-Fluoro-3′-methyl-biphenyl-2-ylmethoxy)-pyrrolidine]
Ki [1]: 26.7 nM | Ki [2]: 39.6 nM

Fc1ccc(-c2ccccc2CO[C@H]2CCNC2)cc1 [Example A-8, (S)-3-(4′-Fluoro-biphenyl-2-ylmethoxy)-pyrrolidine maleate]
Ki [1]: 20.5 nM | Ki [2]: 15.3 nM

Cc1cccc(-c2ccc(F)cc2CO[C@H]2CCNC2)c1 [Example D-69, (S)-3-(4-Fluoro-3′-methyl-biphenyl-2-ylmethoxy)-pyrrolidine]
Ki [1]: 85.8 nM | Ki [2]: 90.4 nM

Fc1cc(F)cc(-c2ccc(F)cc2CO[C@H]2CCNC2)c1 [Example D-86, (S)-(4,3′,5′-Trifluoro-biphenyl-2-ylmethoxy)-pyrrolidine]
Ki [1]: 76.2 nM | Ki [2]: 278 nM

c1ccc(-c2cccc3ncccc23)c(CO[C@H]2CCNC2)c1 [Example D-122, (S)-5-[2-(Pyrrolidin-3-yloxymethyl)-phenyl]-quinoline]
Ki [1]: 769 nM | Ki [2]: 659 nM

OCc1cccc(-c2ccc(F)cc2CO[C@H]2CCNC2)c1 [Example D-87, (S)-[4′-Fluoro-2′-(pyrrolidin-3-yloxymethyl)-biphenyl-3-yl]-methanol]
Ki [1]: 124 nM | Ki [2]: 3080 nM

COc1ccc(-c2ccccc2CO[C@H]2CCNC2)cc1OC [Example D-36, (S)-3-(3′,4′-Dimethoxy-biphenyl-2-ylmethoxy)-pyrrolidine]
Ki [1]: 150 nM | Ki [2]: 635 nM

CC(C)N(C(=O)c1ccccc1-c1ccccc1CO[C@H]1CCNC1)C(C)C [Example D-5, (S)-2′-(Pyrrolidin-3-yloxymethyl)-biphenyl-2-carboxylic acid diisopropylamide]
Ki [1]: 197 nM | Ki [2]: 17.9 nM

Cc1ccc(-c2ccccc2CO[C@H]2CCNC2)cc1 [Example A-2, (S)-3-(4′-Methyl-biphenyl-2-ylmethoxy)-pyrrolidine hydrochloride]
Ki [1]: 93.3 nM | Ki [2]: 7.6 nM

CC(=O)c1ccc(-c2ccc(F)cc2CO[C@H]2CCNC2)cc1 [Example D-78, (S)-1-[4′-Fluoro-2′-(pyrrolidin-3-yloxymethyl)-biphenyl-4-yl]-ethanone]
Ki [1]: 444 nM | Ki [2]: 6870 nM

N#Cc1cccc(-c2cc(F)ccc2F)c1CO[C@H]1CCNC1 [Example E-1, (S)-2′,5′-Difluoro-2-(pyrrolidin-3-yloxymethyl)-biphenyl-3-carbonitrile fumarate]
Ki [1]: 1120 nM | Ki [2]: 336 nM

COc1cccc(-c2ccc(F)cc2CO[C@H]2CCNC2)c1 [Example D-114, (S)-3-(4-Fluoro-3′-methoxy-biphenyl-2-ylmethoxy)-pyrrolidine]
Ki [1]: 60 nM | Ki [2]: 145 nM

Fc1ccccc1-c1c(F)cccc1CO[C@H]1CCNC1 [Example A-32, (3S)-3-[(2′,6-difluorobiphenyl-2-yl)methoxy]pyrrolidine hydrochloride]
Ki [1]: 758 nM | Ki [2]: 23.9 nM

COc1ccc(C(C)C)cc1-c1ccccc1CO[C@H]1CCNC1 [Example D-49, (S)-(5′-Isopropyl-2′-methoxy-biphenyl-2-ylmethoxy)-pyrrolidine]
Ki [1]: 2970 nM | Ki [2]: 4230 nM

Fc1ccc(F)c(-c2cccnc2CO[C@H]2CCNC2)c1 [Example C-1, (S)-3-(2,5-Difluoro-phenyl)-2-(pyrrolidin-3-yloxymethyl)-pyridine fumarate]
Ki [1]: 108 nM | Ki [2]: 382 nM

Fc1ccc(-c2cc(Cl)cc(Cl)c2)c(CO[C@H]2CCNC2)c1 [Example D-65, (S)-3-(3′,5′-Dichloro-4-fluoro-biphenyl-2-ylmethoxy)-pyrrolidine]
Ki [1]: 49.7 nM | Ki [2]: 265 nM

— patent US20090215857A1 (Pfizer Products Inc., priority 2005, published 2009)
